The text below walks through data of ChEMBL document CHEMBL3407452, “Linear and branched alkyl-esters and amides of gallic acid and other (mono-, di- and tri-) hydroxy benzoyl derivatives as promising anti-HCV inhibitors” (Eur J Med Chem, 2015).

As usually defined, the EC90 is the point of the concentration-response curve where the effect stands at 90%. As usually defined, the EC50 is the midpoint of the concentration-response curve. One may read the CC50 as the concentration that lowers cell viability or growth by half.

Molecules are shown by their SMILES. Activity calls are given as the source filed them. No cut-off for these calls is given here.

In one series the test system is Coxsackievirus B4. The series can be described thus: Antiviral activity against human coxsackievirus B4. The format is functional, organism-based.
For series [1], the system named is Vesicular stomatitis virus. Description: Antiviral activity against vesicular stomatitis virus. The format is functional, organism-based.
A further series relates to Hepatitis C virus. The series can be described thus: Antiviral activity against HCV genotype 1b I389luc-ubi-neo/NS3-3'/5.1 replicons infected in human Huh5-2 HCV subgenomic replicon-containing cells assessed as reduction in virus replication after 3 days by luciferase reporter gene assay. The format is functional, Hepacivirus hominis. The following applies: Hepatitis C virus, genotype 1b, Huh-5-2, 72 h; for EC50: read-out: EC50.

The test system of a further series is Human respirovirus 3. Description: Antiviral activity against human parainfluenza virus 3. The format is functional, organism-based.
The next series deals with Reovirus sp. The series can be described thus: Antiviral activity against reovirus. The format is functional, organism-based.
Series [2] relates to Human immunodeficiency virus 2. Description: Antiviral activity against HIV2 ROD infected in human CEM cells assessed as reduction in virus-induced cytopathicity after 4 to 5 days by microscopy based syncytium cell formation assay. The format is functional, organism-based, ISOLATE ROD, CCRF-CEM. Particulars: Human immunodeficiency virus 2, ISOLATE ROD, CCRF-CEM; read-out: EC50. For orientation: Damage to the host cells serves as the signal in cytopathic effect assays.

The next series relates to Chikungunya virus. Description: Antiviral activity against chikungunya virus. The format is functional.
In a further series the test system is Influenza A virus H3N2. The series can be described thus: Antiviral activity against influenza A virus H3N2. The format is functional, organism-based.
A short description of series [3]: Cytotoxicity against human CEM cells assessed as inhibition of cell proliferation. The format is cell-based. The following applies: CEM cells (CCRF-CEM).
Series [4] deals with Respiratory syncytial virus. The series can be described thus: Antiviral activity against RSV. The format is functional, organism-based.
The test system of series [5] is Human immunodeficiency virus 1. Description: Antiviral activity against HIV1 3B infected in human CEM cells assessed as reduction in virus-induced cytopathicity after 4 to 5 days by microscopy based syncytium cell formation assay. Particulars: Human immunodeficiency virus 1, 3B, CCRF-CEM; read-out: EC50. The format is functional, organism-based, CCRF-CEM.
Series [6] is described as follows: Cytotoxicity against human Huh5-2 cells after 72 hrs by MTS assay. The format is cell-based, Huh-5-2.
The test system of another series is Vaccinia virus. Description: Antiviral activity against vaccinia virus. The format is functional, organism-based. The following applies: Orthopoxvirus vaccinia.
A further series has as its system Felid alphaherpesvirus 1. Description: Antiviral activity against feline herpesvirus. The format is functional, organism-based.
The test system of another series is Sindbis virus. Description: Antiviral activity against sindbis virus. The format is functional, organism-based.
A further series has as its system Influenza A virus. The series can be described thus: Antiviral activity against influenza A virus (H1N1). The format is functional, organism-based.
Series [7] is described as follows: Selectivity index, ratio of CC50 for human Huh5-2 cells to EC50 for HCV genotype 1b. Details: species or system Huh-5-2.
Another series has as its system Punta Toro virus. The series can be described thus: Antiviral activity against punta toro virus. The format is functional, organism-based.
A further series deals with Feline coronavirus. The series can be described thus: Antiviral activity against feline coronavirus. The format is functional, organism-based.

On to `CCCCCCCCCCCCOC(=O)c1cc(O)c(O)c(O)c1` [DODECYL GALLATE], for which the outcome (in the series on Coxsackievirus B4; in [1]; in the series on Human respirovirus 3; in the series with Reovirus sp.; in the series on Chikungunya virus; in the series with Influenza A virus H3N2) was inactive. The result (in [4]; in the series on Vaccinia virus; in the series with Felid alphaherpesvirus 1; with Sindbis virus; in the series with Influenza A virus; in the series on Punta Toro virus) was inactive. In addition, the outcome in the series with Feline coronavirus was inactive. Also, the EC90 with Hepatitis C virus stood at 1.8 µM. Moreover, the EC50 with Hepatitis C virus is 0.4 µM; in series [2] it was no less than 1 µM; in series [5], no less than 1 µM. In addition, the CC50 in [3] was found to be 2.8 µM. Moreover, half-maximal cytotoxicity in [6] (CC50 at 72 h) was put at 8.9 µM. Further, the “Ratio CC50/EC50” value in [7] is reported as greater than 22.
With `O=C(OCCCCCCCCCCCCOC(=O)c1cc(O)c(O)c(O)c1)c1cc(O)c(O)c(O)c1`, the result (in the series on Coxsackievirus B4; in series [1]; with Human respirovirus 3; with Reovirus sp.; in the series with Chikungunya virus; in the series on Influenza A virus H3N2) was inactive. For the same compound, the outcome (in series [4]; in the series with Vaccinia virus; in the series with Felid alphaherpesvirus 1; with Sindbis virus; with Influenza A virus; with Punta Toro virus) was inactive. Also, in the series with Feline coronavirus, the outcome was inactive. Moreover, the EC90 with Hepatitis C virus was found to be 37 µM. In addition, the EC50 in the series on Hepatitis C virus is 6.5 µM; in [2], greater than 10 µM; in series [5] it was 4.6 µM. Moreover, the CC50 in series [3] is 4.7 µM. In series [6], this compound yielded a CC50 at 72 h greater than 50 µM. Further, the “Ratio CC50/EC50” value in [7] is reported as greater than 7.
